Assay results taken from patent US5574071A, “Method of lowering cholesterol” (Hoffmann-La Roche Inc., priority 1993, dated 1996).
Where a name gives a salt, the structure may show the parent alone.

System: LDL receptor in human hepatoma cells (Hep G2)
Assay: Inhibition of cholesterol synthesis in human hepatoma cells (Hep G2), determined by stimulation of LDL receptors (ELISA, C7-LDL antibody)
Format: cell-based
Settings: HepG2, Table B, versus untreated cells, read-out: EC50 (concentration which increases the activity of the LDL receptor by 50% in comparison to the control)
Method: Thus, the inhibition of cholesterol :synthesis in human hepatoma cells (Hep G2) was determined on the basis of the stimulation of the LDL receptors induced in parallel. The cells were placed in microtitre plates and treated with the cholesterol synthesis inhibitor. The concentration of the LDL receptor is measured by ELISA methodology, with the C7-LDL antibody being used as the primary antibody. The EC50 values in nM/I in Table B hereinafter correspond to the concentration of cholesterol synthesis inhibitor which increases the activity of the receptor by 50% in comparison to the control, that is, untreated cells.

Row | EC50 [nM] | SMILES
1 | 51 | C=CCN(C)CCCCCCOc1ccc(C(=O)c2ccc(Br)cc2)cc1 [Example 9a, [4-[6-(allyl-methyl-amino)-hexyloxy]-phenyl]-(4-bromo-phenyl)-methanone hydrobromide]
2 | 203 | C=CCN(C)CCCCCCOc1ccc(C(=O)c2ccc(Br)cc2)cc1F [Example 9c, [4-[6-(ally-methyl-amino)-hexyloxy]-3-fluoro-phenyl]-(4-bromo-phenyl)-methanone]
3 | 57 | C=CCN(C)CCCCCCOc1ccc(C(=O)c2ccc(Br)cc2)c(F)c1 [Example 9d, [4-[6-(allyl-methyl-amino)-hexyloxy]-2-fluoro-phenyl]-(4-bromo-phenyl)-methanone]
4 | 10 | C=CCN(C)C/C=C/COc1ccc(C(=O)c2ccc(Br)cc2)cc1F [Example 9f, (E)-[4-[4-(allyl-methyl-amino)-but-2-enyloxy]-3-fluoro-phenyl]-(4-bromo-phenyl)-methanone]
5 | 177 | C=CCN(C)C/C=C/COc1ccc(C(=O)CCCC(C)C)cc1 [Example 9g, (E)-I -[4-[4-(allyl-methyl-amino)-but-2-enyloxy]-phenyl]-5-methyl-hexan-l-one]
6 | 94 | C=CCN(C)C/C=C/COc1ccc(C(=O)c2ccc(I)cc2)cc1 [Example 9h, (E)-[4-[4-(allyl-methyl-amino)-but-2-enyloxy]-phenyl]-(4-iodo-phenyl)-methanone]
7 | 19 | C=CCN(C)C/C=C/COc1ccc(C(=O)c2ccc(C#N)cc2)cc1F [Example 9j, (E)-[4-[4-(allyl-methyl-amino)-but-2-enyloxy]-3-fluoro-benzoyl]-benzonitrile]
8 | 220 | C=CCN(C)C/C=C/COc1ccc(C(=O)c2c(F)cccc2F)cc1F [Example 9l, (E)-[4-[4-(allyl-methyl-amino)-but-2-enyloxy]-3-fluoro-phenyl]-(2,6-difluoro-phenyl)-methanone]
9 | 34 | C=CCN(C)C/C=C/COc1ccc(C(=O)CCC=C(C)C)cc1 [Example 9m, (E)-I -[4-[4-(allyl-methyl-amino)-but-2-enyloxy]phenyl]-5-methyl-hex-4-en-l-one]
10 | 133 | C=CCN(C)C/C=C/COc1ccc(C(=O)c2ccc(Br)cc2)c(F)c1 [Example 9n, (E)-[4-[4-(allyl-methyl-amino)-but-2-enyloxy]-2-fluoro-phenyl]-(4-bromo-phenyl)-methanone]
11 | 98 | C=CCN(C)C/C=C/COc1ccc(CC(=O)CCC=C(C)C)cc1F [Example 9p, (E)-1-[4-[4-(allyl-methylamino)-but-2-enyloxy]-3-fluoro-phenyl]-6-methyl-hept-5-en-2-one]
12 | 222 | C=CCN(C)C/C=C/COc1ccc(CC(=O)c2ccc(Br)cc2)cc1 [Example 9r, (E)-2-[4-[4-(allyl-methyl-amino)-but-2-enyloxy)-phenyl]-1-(4-bromo-phenyl)-ethanone]
13 | 122 | CCN(C)C/C=C/COc1ccc(C(=O)c2ccc(Br)cc2)cc1 [Example 9s, (E)-(4-bromo-phenyl)-[4-[4-(ethyl-methyl-amino)-but-2-enyloxy]-phenyl]-methanone hydrobromide]

Row | SMILES | EC50 [nM]
14 | C=CCN(C)CC=CCOc1ccc(C(=O)c2ccc(Br)cc2)cc1 [Compound 1, trans-4-[[4-(allymethylamino)-2-butenyl]oxy]-4'-bromo-benzophenone] | 50
15 | C=CCN(C)Cc1ccc(-c2ccc(C(=O)c3ccc(C#N)cc3)cc2)cc1 [Compound 2, p-[[4'-[(allylmethylamino)methyl]-4-biphenylyl]carbonyl]-benzonitrile] | 43
16 | C=CCN(C)CC=CCOc1ccc(C(=O)c2ccc([N+](=O)[O-])cc2)cc1 [Compound 3, trans-4-[[4-(allylmethylamino)-2-butenyl]oxy]-4'-nitro-benzophenone] | 63
17 | CN(C)Cc1ccc(-c2ccc(C(=O)c3ccc([N+](=O)[O-])cc3Cl)cc2)cc1 [Compound 4, 2-chloro-4-nitrophenyl 4'-[(dimethylamino)methyl]-4-biphenylyl ketone] | 153
18 | C=CCN(C)CC=CCOc1ccc(C(=O)c2ccc(Cl)cc2Cl)cc1 [Compound 7, trans-4-[[4-(allymethylamino)-2-butenyl]oxy]-2',4'-dichloro-benzophenone] | 82

System: not listed separately
Assay: Toxicity (LD50 per os in the mouse)
Settings: in vivo, po

Row | SMILES | LD50 [mg/kg]
19 | CC(C)=CCCC(=O)c1ccc(-c2ccc(CN(C)C)cc2)cc1 [Compound 20] | 1250 to 2500
